Values quoted from earlier work in US8273371B2, “Crystalline mesoporous oxide based materials useful for the fixation and controlled release of drugs” (priority 2003, dated 2012).
Values joined by “and” are separate entries in the source; they are usually repeats but may differ in a detail not shown here. Identical values can stand only once.

Key:
[1] = from 50° C. to 130° C.
[2] = not given; remark: listed apart in the source
[3] = ibuprofen loaded on mesoporous oxide material
[4] = capsules with granulate of drug, surfactants, cyclodextrin, Avicel PH 101 and Primojel

## CCC(C)n1ncn(-c2ccc(N3CCN(c4ccc(OCC5COC(Cn6cncn6)(c6ccc(Cl)cc6Cl)O5)cc4)CC3)cc2)c1=O (centres unmarked) [itraconazole]
[1]
  solubility in supercritical carbon dioxide: relatively poor

## CS(=O)(=O)c1ccc([C@@H](O)[C@@H](CF)NC(=O)C(Cl)Cl)cc1 [florfenicol, D-(threo)-1-p-methylsulfonyl phenyl-2-dichloroacetamido-3-fluoro-1-propanol]
other
  oral bioavailability: good oral bioavailability

## CC/C(=C(/CC)c1ccc(O)cc1)c1ccc(O)cc1 [diethylstilbestrol]
[2]
  solubility in water: virtually insoluble in water

## CC(C)Cc1ccc(C(C)C(=O)O)cc1 (centres unmarked) [ibuprofen]
[3]; after 20 hours
  drug release after 20 hours: 60%
[3]; after 24 hours
  drug release after 24 hours: 55% and 68%
[3]; third day
  maximum release at the third day: 80%

## CC(C)(C)c1ccc(C(O)CCCN2CCC(C(O)(c3ccccc3)c3ccccc3)CC2)cc1 (centres unmarked) [terfenadine]
[4]
  drug release within 45 minutes: 90%
[2]; in water
  water-solubility: less than 0.01 mg/ml
